Laboratory results published in US12370235B2, “Synthetic, non-natural antimicrobial peptides inspired by Staphylococcus auricularis delta toxin” (University of Saskatchewan, priority 2021, dated 2025).
≈ marks a conversion by molar mass, not a printed value. Square brackets hold non-standard residues; d marks the D form. Ends that are not written are not given here. Peptide text beside a SMILES is read from it.

Assays:
M. luteus ATCC 4698 = assay: MIC, broth dilution; assay type: cell-based, Micrococcus luteus; conditions: Table 4; liquid broth
Description: MIC determination. MICs were measured using peptides with 95% purity. For bacterial studies, cation-adjusted Mueller Hinton (MH) broth was used as the growth medium whereas Yeast Peptone Dextrose (YPD; 10 g/L yeast extract, 20 g/L peptone, 20 g/L dextrose) was used for Candida spp. and other yeast. Microorganisms were diluted to an optical density of […] in MH or YPD broth and a 180 μl volume was mixed with 20 μl of peptide arrayed as a 2-fold dilution series in a flat-bottom 96-well microtitre plate. A control was performed using 20 μl of sterile water. Plates were incubated as standing cultures overnight at 37° C.
(§1) Determination of minimum inhibitory concentrations. The MICs were measured for bioactive peptides identified from the initial screen. For bacterial studies, cation-adjusted Mueller Hinton (MH) broth was used as the growth medium whereas YPD was used for C. albicans. Bacterial cultures were diluted to a OD value of 6×10^−4 in MH broth and a 180 μl volume was mixed with 20 μl of peptide arrayed as 2-fold dilution series in a 96-well plate. For the positive control, 20 μl of sterile water was used. Plates were incubated as standing cultures overnight at 37° C. The lowest peptide concentration that resulted no observed microbial growth after an overnight treatment was defined as the MIC.

S. aureus ATCC 29213 [1] = assay: MIC, broth dilution; assay type: cell-based, Staphylococcus aureus; conditions: for MIC (μg/mL) S. aureus: liquid broth; for MIC S. aureus ATCC 29213: Table 5, STIP3 variants, highest concentration 100 μg/mL
Procedure, shortened: (§2)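 Peptides (95% purity) were serially diluted 2-fold and mixed with bacteria diluted to OD 6×10^−4 in cation-adjusted Mueller Hinton broth. Standing cultures were incubated overnight at 37° C. MIC was the lowest peptide concentration with no observed growth.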

[2] = test system: S. aureus ATCC 33592 (MRSA SCCmec type III); assay: MIC, broth dilution; assay type: cell-based, Staphylococcus aureus; conditions: Table 5; STIP3 variants, highest concentration 100 μg/mL
Procedure, shortened: as §2

[3] = test system: S. aureus ATCC BAA-1683 (MRSA SCCmec type IV); assay: MIC, broth dilution; assay type: cell-based, Staphylococcus aureus; conditions: Table 5; STIP3 variants, highest concentration 100 μg/mL
Procedure, shortened: as §2

[4] = test system: S. aureus ATCC BAA-2094 (MRSA SCCmec type V); assay: MIC, broth dilution; assay type: cell-based, Staphylococcus aureus; conditions: Table 5; STIP3 variants, highest concentration 100 μg/mL
Procedure, shortened: as §2

[5] = test system: S. aureus ATCC BAA-2313 (MRSA SCCmec type XI); assay: MIC, broth dilution; assay type: cell-based, Staphylococcus aureus; conditions: Table 5; STIP3 variants, highest concentration 100 μg/mL
Procedure, shortened: as §2

[6] = test system: S. aureus ATCC BAA-41 (MRSA SCCmec type II); assay: MIC, broth dilution; assay type: cell-based, Staphylococcus aureus; conditions: Table 5; STIP3 variants, highest concentration 100 μg/mL
Procedure, shortened: as §2

[7] = test system: S. aureus ATCC BAA-42 (MRSA SCCmec type VI); assay: MIC, broth dilution; assay type: cell-based, Staphylococcus aureus; conditions: Table 5; STIP3 variants, highest concentration 100 μg/mL
Procedure, shortened: as §2

[8] = test system: S. aureus ATCC BAA-44 (MRSA SCCmec type I); assay: MIC, broth dilution; assay type: cell-based, Staphylococcus aureus; conditions: Table 5; STIP3 variants, highest concentration 100 μg/mL
Procedure, shortened: as §2

[9] = test system: Mannheimia haemolytica ATCC 33393; assay: MIC, broth dilution; assay type: cell-based
Procedure, shortened: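 Peptides (95% purity) in 2-fold dilution series were mixed with M. haemolytica diluted to OD 6×10^−4 in cation-adjusted Mueller Hinton broth and incubated standing overnight at 37 °C. MIC was the lowest concentration with no visible growth.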

C. albicans MYA-2876 = assay: MIC, YPD broth; assay type: cell-based, Candida albicans; conditions: Table 8
Procedure, shortened: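 Minimum inhibitory concentrations against Candida albicans were determined in YPD broth (10 g/L yeast extract, 20 g/L peptone, 20 g/L dextrose) using peptides of 95% purity. A 180 μl volume of diluted yeast was combined with 20 μl of peptide in a 2-fold dilution series in 96-well plates, with sterile water as control, then incubated standing overnight at 37° C.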

[10] = test system: Candida duobushaemulonii AR 392; assay: MIC, YPD broth, CDC and FDA AR Candida isolate panel; assay type: cell-based; conditions: Table 9 top part: titrations from 1.56 to 100 μg/mL
Procedure, shortened: (§3)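 Two-fold dilutions of each peptide (95% purity) were mixed with yeast suspended in broth of 10 g/L yeast extract, 20 g/L peptone and 20 g/L dextrose at an optical density of […]. Incubation was static, overnight, 37° C.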

Candida krusei AR 397 = assay: as above; assay type: cell-based; conditions: Table 9 top part: titrations from 1.56 to 100 μg/mL
Procedure, shortened: as §3

Kodamae ohmeri AR 396 = assay: as above; assay type: cell-based; conditions: Table 9 top part: titrations from 1.56 to 100 μg/mL
Procedure, shortened: as §3

[11] = test system: Saccharomyces cerevisiae AR 399; assay: as above; assay type: cell-based; conditions: Table 9 top part: titrations from 1.56 to 100 μg/mL
Procedure, shortened: as §3

[12] = test system: Saccharomyces cerevisiae AR 400; assay: as above; assay type: cell-based; conditions: Table 9 top part: titrations from 1.56 to 100 μg/mL
Procedure, shortened: as §3

S. aureus ATCC 29213 [13] = assay: Spot-on-lawn assay; assay type: cell-based, Staphylococcus aureus; conditions: 50 μg peptide spotted on agar
Description: Spot-on-lawn assay. For the initial screen, peptides of ≥70% purity were used. Each peptide was resuspended in sterile water to a concentration of 10 mg/ml. To determine antimicrobial activities a spot-on-lawn assay was performed. M. luteus and S. aureus were used as indicator strains. To prepare test organisms, the optical density (OD) of overnight cultures were measured and the organisms were diluted to an initial OD of 0.05 in soft nutrient agar (0.4% w/v) at 50° C. Next, 3 mL of soft agar containing a test organism was overlaid on a solid 1.5% w/v nutrient agar plate (LB). A total of 50 μg of each peptide was spotted on the inoculated surface and plates were incubated for 16 to 48 h before being examined for zones of inhibition.
SspA protease treatment. SspA protease was resuspended at 2 mg/mL in 100 mM HEPES, pH 7.8. Proteolysis was achieved by incubation of 50 μg PSMs at 37° C. for ˜5 hours with 0.2 mg/mL SspA. The antimicrobial activity of the proteolytic products were assayed by spotting a 5 μL (˜45 μg) from each treated peptide on each test microorganism as described above.

[14] = Circular dichroism spectroscopy; assay type: physicochemical; conditions: CD, 50% (v/v) TFE
Procedure, shortened: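 Secondary structure of peptides dissolved in water at 0.3–0.5 mg/mL was assessed by CD. Spectra were recorded from 180 to 260 nm at room temperature in a 0.1 cm quartz cuvette; water and 50% (v/v) TFE conditions were compared.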

[15] = test system: S. aureus / MRSA (ATCC MP-2 panel); assay type: cell-based, Staphylococcus aureus
Description: In order to begin to characterize STIP3-1 and potential sites amenable to modification, an alanine scanning experiment was performed. A total of 16 peptides with single alanine substitutions were assessed to inform on the importance of individual residues to antimicrobial activity. […] Next a series of thirty STIP3-1 variants were designed, guided by the aforementioned alanine scan and a previous report that the central α-helical core of the S. aureus δ-toxin could be converted into AMP through the inclusion of additional lysine residues^39. The collection included ten members with single substitutions relative to STIP3-1 and others that incorporated a number of changes that were designed to increase overall and local cationic charge as well as hydrophobic character (Table 5). Each of the STIPs was screened, including STIP3-1 to STIP-31, for antibiotic activity against a methicillin-sensitive S. aureus test organism and a panel of 7 MRSA strains defined by distinct SCCmec genotypes (FIG. 2; ATCC MP-2).
as §1

C. albicans Y537 = assay: MIC, YPD broth; assay type: cell-based, Candida albicans; conditions: Table 8

Molecule	MIC (μg/mL) M. luteus (M. luteus ATCC 4698)	MIC (μg/mL) S. aureus (S. aureus ATCC 29213 [1]; Table 4)	MIC (μg/mL) M. haemolytica ([9]; Table 10, liquid broth)	inhibition of S. aureus, spot-on-lawn (S. aureus ATCC 29213 [13])	MIC (μg/mL) S. aureus (S. aureus ATCC 29213 [1]; Table 10)	further results
TVGGLVKWILATVKKFA [STIP3-2, TVGGLVKWILATVKKFA]	3.13 µg/mL	100 µg/mL	50 µg/mL	observed to inhibit S. aureus		MIC S. aureus ATCC 29213 (S. aureus ATCC 29213 [1]): 100 µg/mL; MIC S. aureus ATCC 33592 (III) [2]: 50 µg/mL; MIC S. aureus ATCC BAA 1683 (IV) [3]: 50 µg/mL; MIC S. aureus ATCC BAA 2094 (V) [4]: 50 µg/mL; MIC S. aureus ATCC BAA 2313 (XI) [5]: 50 µg/mL; MIC S. aureus ATCC BAA 41 (II) [6]: 100 µg/mL; MIC S. aureus ATCC BAA 42 (VI) [7]: 50 µg/mL; MIC S. aureus ATCC BAA 44 (I) [8]: 100 µg/mL; MIC (μg/mL) M. haemolytica ([9]; Table 11, highest concentration 25 μg/mL): 25 µg/mL; MIC C. albicans MYA-2876 (C. albicans MYA-2876): 100 µg/mL; MIC (μg/mL) Candida duobushaemulonii AR 392 [10]: > (MIC values reported at the top of the table (above the double line) are based on titrations from 1.56 to 100 μg/mL); MIC (μg/mL) Candida krusei AR 397 (Candida krusei AR 397): 50 µg/mL; MIC (μg/mL) Kodamae ohmeri AR 396 (Kodamae ohmeri AR 396): 100 µg/mL; MIC (μg/mL) Saccharomyces cerevisiae AR 399 [11]: 50 µg/mL; MIC (μg/mL) Saccharomyces cerevisiae AR 400 [12]: 100 µg/mL; α helicity (%) [14]: 50%
AVGGLVKWILDTVKKFA [T1A, AVGGLVKWILDTVKKFA]	12.5 µg/mL	200 µg/mL	50 µg/mL	observed to inhibit S. aureus		
TVGGLVKWILDAVKKFA [T12A, TVGGLVKWILDAVKKFA]	12.5 µg/mL	100 µg/mL	50 µg/mL	observed to inhibit S. aureus		
TVGALVKWILDTVKKFA [G4A, TVGALVKWILDTVKKFA]	12.5 µg/mL	>^b (> = >200 μg/mL (maximum concentration tested))	50 µg/mL	observed to inhibit S. aureus	>^b (the use of > indicates an MIC > 200 μg/mL; the maximum concentration tested)	
CC[C@H](C)[C@H](NC(=O)[C@H](Cc1c[nH]c2ccccc12)NC(=O)[C@H](CCCCN)NC(=O)[C@@H](NC(=O)[C@H](CC(C)C)NC(=O)CNC(=O)CNC(=O)[C@@H](NC(=O)[C@@H](N)[C@@H](C)O)C(C)C)C(C)C)C(=O)N[C@@H](CC(C)C)C(=O)N[C@H](CCCCN)C(=O)N[C@H](C(=O)N[C@H](C(=O)N[C@@H](CCCCN)C(=O)N[C@@H](CCCCN)C(=O)N[C@@H](Cc1ccccc1)C(=O)N[C@@H](C)C(N)=O)C(C)C)[C@@H](C)O [STIP3-29-D1, TVGGLVKWILKTVKKFA-NH2] (H-TVGGLVKWIL[dK]TVKKFA-NH2; N-terminus assumed)						MIC S. aureus ATCC 29213 (S. aureus ATCC 29213 [1]): 12.5 µg/mL (≈ 6.62 µM); MIC S. aureus ATCC 33592 (III) [2]: 25 µg/mL (≈ 13.2 µM); fold increase of MIC relative to STIP3-29 [15]: 4 fold; MIC C. albicans MYA-2876 (C. albicans MYA-2876): 12.5 µg/mL (≈ 6.62 µM); MIC C. albicans Y537 (C. albicans Y537): 25 µg/mL (≈ 13.2 µM); α helicity (%) [14]: 51%
TVAGLVKWILDTVKKFA [G3A, TVAGLVKWILDTVKKFA]	50 µg/mL	>^b (> = >200 μg/mL (maximum concentration tested))	100 µg/mL	observed to inhibit S. aureus	>^b (the use of > indicates an MIC > 200 μg/mL; the maximum concentration tested)	
TVGGLVKWILDTVAKFA [K14A, TVGGLVKWILDTVAKFA]	12.5 µg/mL	>^b (> = >200 μg/mL (maximum concentration tested))	100 µg/mL	observed to inhibit S. aureus	>^b (the use of > indicates an MIC > 200 μg/mL; the maximum concentration tested)	
TVGGLVKWILDTVKAFA [K15A, TVGGLVKWILDTVKAFA]	25 µg/mL	>^b (> = >200 μg/mL (maximum concentration tested))	50 µg/mL	observed to inhibit S. aureus	>^b (the use of > indicates an MIC > 200 μg/mL; the maximum concentration tested)	
